In ChEMBL document CHEMBL1201862, “PubChem BioAssay data set” (2004):
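Method: 48-hour compound exposure of cells in 96-well plates, five concentrations, linear interpolation of endpoints. GI50 marks 50% less growth.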 Activity calls are given as the source filed them. Rule as the data show it: active = GI50 up to about 1.1 µM and inactive = higher.

Legend:
Experiment in all cases: inhibition of tumour cell growth, NCI panel, 48 h
[1] = tested on: ACHN
[2] = tested on: CAKI-1
[3] = tested on: DU-145
[4] = tested on: EKVX
[5] = tested on: HCT-116
[6] = tested on: HL-60
[7] = tested on: KM12
[8] = tested on: Malme-3M
[9] = tested on: NCI-H460
[10] = tested on: NCI-H522
[11] = tested on: NCI/ADR-RES
[12] = tested on: OVCAR-4
[13] = tested on: OVCAR-5
[14] = tested on: PC-3
[15] = tested on: RXF 393
[16] = tested on: SK-MEL-28
[17] = tested on: SK-MEL-5
[18] = tested on: SW-620
[19] = tested on: UACC-257
[20] = tested on: MDA-MB-231

Structure (SMILES) | GI50 [1] | GI50 [2] | GI50 [3] | GI50 [4] | GI50 [5] | GI50 [6] | GI50 [7] | GI50 [8] | GI50 [9] | GI50 [10] | GI50 [11] | GI50 [12] | GI50 [13] | GI50 [14] | GI50 [15] | GI50 [16] | GI50 [17] | GI50 [18] | GI50 [19] | GI50 [20]
Cn1ccnc1S/C(=C\C=C(C#N)C#N)c1ccc(Cl)cc1 | 0.693 µM (active) | 1.69 µM (inactive) | 6.04 µM (inactive) | 7.89 µM (inactive) | 0.324 µM (active) | 0.461 µM (active) | 2.06 µM (inactive) | 1.04 µM (active) | 7.33 µM (inactive) | 2.45 µM (inactive) | 2.22 µM (inactive) | 4.09 µM (inactive) | 2.31 µM (inactive) | 1.6 µM (inactive) | 1.84 µM (inactive) | 4.06 µM (inactive) | 1.13 µM (inactive) | 0.303 µM (active) | 2.1 µM (inactive) | –
O=C(CC(=O)n1nc(-c2ccccc2)c(/N=N/c2ccccc2C(=O)O)c1-c1ccccc1)Nc1ccc(Cl)cc1 | 33.5 µM (inactive) | – | – | 30.7 µM (inactive) | 17.9 µM (inactive) | 10.2 µM (inactive) | > 100 µM (inactive) | 75 µM (inactive) | 19.2 µM (inactive) | – | – | – | 43 µM (inactive) | 27.5 µM (inactive) | 7.66 µM (inactive) | 52.8 µM (inactive) | 42 µM (inactive) | 63.8 µM (inactive) | 32 µM (inactive) | 33.3 µM (inactive)
COc1ccc(-n2cnc3c(NC(C)(C)C(=O)O)ncnc32)cc1 | > 100 µM (inactive) | > 100 µM (inactive) | > 100 µM (inactive) | 84.9 µM (inactive) | > 100 µM (inactive) | – | > 100 µM (inactive) | – | > 100 µM (inactive) | – | > 100 µM (inactive) | > 100 µM (inactive) | > 100 µM (inactive) | > 100 µM (inactive) | – | > 100 µM (inactive) | > 100 µM (inactive) | > 100 µM (inactive) | > 100 µM (inactive) | > 100 µM (inactive)
COc1cc(OC)c(C2c3cc4c(cc3OC(N3CCOCC3)C2C)OCO4)c(OC)c1 (stereo not drawn) | 12.3 µM (inactive) | – | 21.5 µM (inactive) | 80.5 µM (inactive) | 7.4 µM (inactive) | – | 24.5 µM (inactive) | – | 16.4 µM (inactive) | > 100 µM (inactive) | 34.8 µM (inactive) | – | 65.5 µM (inactive) | 42.3 µM (inactive) | – | > 100 µM (inactive) | 47 µM (inactive) | 23.4 µM (inactive) | 78.7 µM (inactive) | –
Cc1ccc(-c2c(C#N)c(-c3ccc(C)cc3)n(NS(=O)(=O)c3ccccc3)c(=O)c2C#N)cc1 | 37.5 µM (inactive) | 83.8 µM (inactive) | – | 56.6 µM (inactive) | 31.1 µM (inactive) | – | 56.5 µM (inactive) | 86.5 µM (inactive) | 40.9 µM (inactive) | 50.1 µM (inactive) | 50.5 µM (inactive) | 40.6 µM (inactive) | > 100 µM (inactive) | 28.9 µM (inactive) | 35.3 µM (inactive) | 49.2 µM (inactive) | 16 µM (inactive) | 42.4 µM (inactive) | 86.1 µM (inactive) | > 100 µM (inactive)
O=S1(=O)OCCOS(=O)(=O)C1Cc1nc2ccccc2[nH]1 | 32.1 µM (inactive) | 27 µM (inactive) | > 100 µM (inactive) | > 100 µM (inactive) | 23 µM (inactive) | 22.5 µM (inactive) | 68.2 µM (inactive) | > 100 µM (inactive) | 28.2 µM (inactive) | – | 30.3 µM (inactive) | 44.2 µM (inactive) | > 100 µM (inactive) | 19.6 µM (inactive) | – | 97.1 µM (inactive) | 34.7 µM (inactive) | – | 29.2 µM (inactive) | 43 µM (inactive)
CCn1c2c(c3ccccc31)[C@@H](c1ccc(Cl)cc1)CC1C(=O)N(c3ccccc3)C(=O)C21 (stereo partly drawn) | 58.6 µM (inactive) | > 100 µM (inactive) | – | > 100 µM (inactive) | 37.6 µM (inactive) | 16.4 µM (inactive) | > 100 µM (inactive) | 70.6 µM (inactive) | 67.1 µM (inactive) | 80.2 µM (inactive) | – | > 100 µM (inactive) | > 100 µM (inactive) | – | 38 µM (inactive) | > 100 µM (inactive) | > 100 µM (inactive) | > 100 µM (inactive) | > 100 µM (inactive) | –
CC(=O)Oc1ccc2c(C)cc(=O)oc2c1OC(C)=O | 29.1 µM (inactive) | – | 28.3 µM (inactive) | 48 µM (inactive) | 32.7 µM (inactive) | – | 44 µM (inactive) | 17.6 µM (inactive) | – | – | 24.2 µM (inactive) | 46.8 µM (inactive) | 93.5 µM (inactive) | 34.1 µM (inactive) | – | 33.9 µM (inactive) | 37.8 µM (inactive) | 30.7 µM (inactive) | 17.7 µM (inactive) | 48.9 µM (inactive)
COc1cc(C(=O)N(C(=O)N2CCCCC2)c2ccccc2)cc(OC)c1OC | > 100 µM (inactive) | > 100 µM (inactive) | > 100 µM (inactive) | > 100 µM (inactive) | > 100 µM (inactive) | – | > 100 µM (inactive) | – | > 100 µM (inactive) | – | > 100 µM (inactive) | – | > 100 µM (inactive) | > 100 µM (inactive) | – | > 100 µM (inactive) | > 100 µM (inactive) | > 100 µM (inactive) | > 100 µM (inactive) | > 100 µM (inactive)
C=C1C(=O)O[C@@H]2C[C@@H](C)[C@@H]3C=CC(=O)[C@@]3(C)[C@@H](O)[C@H]12 [HELENALIN] | 1.66 µM (inactive) | 0.377 µM (active) | 3.79 µM (inactive) | 3.13 µM (inactive) | 0.51 µM (active) | 0.525 µM (active) | 1.53 µM (inactive) | 1.69 µM (inactive) | 1.73 µM (inactive) | 0.242 µM (active) | – | 2.77 µM (inactive) | 1.71 µM (inactive) | 1.92 µM (inactive) | 0.466 µM (active) | 1.76 µM (inactive) | 1.3 µM (inactive) | 0.719 µM (active) | 1.59 µM (inactive) | 3.95 µM (inactive)
CCOC(=O)CCC(NC(=O)C(CCC(=O)OCC)NC(=O)C(Cc1ccc([N+](=O)[O-])cc1)NC(C)=O)C(=O)NNC(=O)OC(C)(C)C (stereo not drawn) | > 100 µM (inactive) | – | – | > 100 µM (inactive) | > 100 µM (inactive) | > 100 µM (inactive) | > 100 µM (inactive) | > 100 µM (inactive) | > 100 µM (inactive) | – | – | – | > 100 µM (inactive) | > 100 µM (inactive) | 14 µM (inactive) | > 100 µM (inactive) | > 100 µM (inactive) | > 100 µM (inactive) | > 100 µM (inactive) | > 100 µM (inactive)
CC[N+](C)(CC)CCNC(=O)C(O)(c1ccccc1)c1ccccc1 | > 100 µM (inactive) | > 100 µM (inactive) | > 100 µM (inactive) | > 100 µM (inactive) | > 100 µM (inactive) | > 100 µM (inactive) | 72.9 µM (inactive) | > 100 µM (inactive) | > 100 µM (inactive) | > 100 µM (inactive) | > 100 µM (inactive) | > 100 µM (inactive) | > 100 µM (inactive) | > 100 µM (inactive) | > 100 µM (inactive) | > 100 µM (inactive) | > 100 µM (inactive) | > 100 µM (inactive) | > 100 µM (inactive) | –
c1ccc(N/N=N/c2ccc(-c3nc4ccccc4o3)cc2)nc1 | 52.2 µM (inactive) | – | 43.6 µM (inactive) | 29.9 µM (inactive) | 39.8 µM (inactive) | 13.7 µM (inactive) | 37.8 µM (inactive) | > 100 µM (inactive) | 30.5 µM (inactive) | 43 µM (inactive) | 35.4 µM (inactive) | 36 µM (inactive) | > 100 µM (inactive) | 30.1 µM (inactive) | – | 61.5 µM (inactive) | 16.2 µM (inactive) | 19.3 µM (inactive) | 29.7 µM (inactive) | 36.6 µM (inactive)
CC1=C(c2cc(C(=O)Nc3cc(C)ccc3C)nc(N)n2)Sc2ccccc2N1 | > 100 µM (inactive) | > 100 µM (inactive) | – | > 100 µM (inactive) | > 100 µM (inactive) | > 100 µM (inactive) | > 100 µM (inactive) | > 100 µM (inactive) | > 100 µM (inactive) | > 100 µM (inactive) | – | > 100 µM (inactive) | > 100 µM (inactive) | – | > 100 µM (inactive) | > 100 µM (inactive) | > 100 µM (inactive) | > 100 µM (inactive) | > 100 µM (inactive) | –
CCCCn1c(C)c(C)c2c1NN=C(C#N)S2(=O)=O | > 100 µM (inactive) | – | > 100 µM (inactive) | > 100 µM (inactive) | > 100 µM (inactive) | – | > 100 µM (inactive) | > 100 µM (inactive) | > 100 µM (inactive) | 64.7 µM (inactive) | > 100 µM (inactive) | > 100 µM (inactive) | > 100 µM (inactive) | > 100 µM (inactive) | – | > 100 µM (inactive) | > 100 µM (inactive) | > 100 µM (inactive) | > 100 µM (inactive) | > 100 µM (inactive)
CC(=O)c1sc2c(c1O)c(=O)n(-c1ccccc1)c(=S)n2-c1ccccc1 | – | – | > 100 µM (inactive) | – | – | > 100 µM (inactive) | > 100 µM (inactive) | > 100 µM (inactive) | > 100 µM (inactive) | > 100 µM (inactive) | – | > 100 µM (inactive) | > 100 µM (inactive) | – | > 100 µM (inactive) | > 100 µM (inactive) | > 100 µM (inactive) | > 100 µM (inactive) | > 100 µM (inactive) | > 100 µM (inactive)
